Columns and labels:
[1] = Inhibition of HIV2 reverse transcriptase; parameters: species or system Human immunodeficiency virus 2
[2] = target: Human immunodeficiency virus type 1 reverse transcriptase (Human immunodeficiency virus 1, UniProt Q72547); assay: Inhibition of HIV1 reverse transcriptase

Row | IC50 [1] | IC50 [2] | Structure (SMILES)
1 | 28.9 µM | 3.7 µM | CC1(C)CC[C@]2(C(=O)O)CC=C3[C@]4(C)CC[C@H]5C(C)(C)[C@@H](OC(=O)c6ccc(O)cc6)[C@H](OC(=O)c6ccc(O)cc6)C[C@]5(C)[C@H]4CC[C@@]3(C)[C@@H]2C1
2 | > 200 µM | 136 µM | CC(=O)O[C@H]1CC[C@]2(C)[C@H]3CC[C@]4(C)C(=CC[C@@]5(C(=O)O)CCC(C)(C)C[C@H]54)[C@]3(C)CC[C@H]2C1(C)C [ACETYL ALEURITOLIC ACID]
3 | 53.1 µM | 4.9 µM | CC1(C)CC[C@]2(C(=O)O)CC=C3[C@]4(C)CC[C@H]5C(C)(C)[C@@H](O)C[C@@H](O)[C@]5(C)[C@H]4CC[C@@]3(C)[C@@H]2C1
4 | 56.7 µM | 3.4 µM | CC1(C)CC[C@]2(C(=O)O)CC=C3[C@]4(C)CC[C@H]5C(C)(C)[C@@H](O)[C@H](O)C[C@]5(C)[C@H]4CC[C@@]3(C)[C@@H]2C1
5 | 59 µM | 3.7 µM | CC1(C)CC[C@]2(C(=O)O)CC=C3[C@]4(C)CC[C@H]5C(C)(C)[C@@H](OC(=O)c6ccc(O)cc6)C[C@@H](O)[C@]5(C)[C@H]4CC[C@@]3(C)[C@@H]2C1
6 | – | 14 µM | CC[C@H]1CN2CCc3cc(OC)c(OC)cc3[C@@H]2C[C@@H]1CC1=NCCc2cc(OC)c(OC)cc21
7 | 78.7 µM | 24.9 µM | CC1(C)CC[C@]2(C(=O)O)CC=C3[C@]4(C)CC[C@H]5C(C)(C)[C@@H](O)CC[C@]5(C)[C@H]4CC[C@@]3(C)[C@@H]2C1 [ALEURITOLIC ACID]

Row | Structure (SMILES) | IC50 [1] | IC50 [2]
8 | COc1cc2c(ccc3c4cc(OC)c(OC)cc4c[n+](C)c23)cc1O [FAGARONINE] | – | 13 µM

From ChEMBL document CHEMBL1149052, “Pentacyclic triterpenes derived from Maprounea africana are potent inhibitors of HIV-1 reverse transcriptase” (J Nat Prod, 1994)
